In US6355682B1, “Treatment of acute renal failure by administration of N-acetylcysteine” (priority 2001, dated 2002):

System: patients affected by acute renal failures
Test: Clinical case reports: N-acetycysteine given to patients with acute renal failure
Type: in vivo, human

CC(=O)N[C@@H](CS)C(=O)O [N-acetycysteine, N-acetylcysteine]
renal function (Case No. 1: 10 mg/kg twice daily, over the next several days): returned to normal
BUN and Creatinin (Case No. 1: acute renal failure after cardiogenic shock, 600 mg in a 20% solution every twelve hours, the next day): the rise of BUN and Creatinin stopped
need for dialysis (Case No. 1: after N-acetycysteine treatment): Dialysis was no longer required
renal function (Case No. 2: 20 mg/kg every twelve hours, over the next seventy-two hours): returned to normal
need for dialysis (Case No. 2: after N-acetycysteine treatment): Dialysis was no longer required
BUN and Creatinin (Case No. 2: hypovolemic shock from acute pancreatitis, 20% solution, 20 mg/kg every twelve hours, values had risen to five times normal): The rise in their BUN and Creatinin stopped
urine output (Case No. 3: 20 mg/kg every twelve hours via nasogastric tube, before treatment less than 100 cc per day): increased to the normal level
BUN and Creatinin (Case No. 3: multi-organ failure after cardiac arrest, 20 mg/kg every twelve hours via nasogastric tube, over the next several days): progressively declined
Creatinin clearance (Case No. 4: 10 mg/kg every twelve hours, two weeks after onset of renal toxicity, 11 ml/minute before treatment, normal for age above 65 ml/min): 22 mL/min
urine output (Case No. 4: 10 mg/kg every twelve hours, within several days): returned to normal
Bun/Creatinin (Case No. 4: diabetic patient, acute renal failure under IV Vancomycin and Imipenim, 10 mg/kg every twelve hours, values had risen to five times normal): progressively declined
need for dialysis (Case No. 4: two weeks after onset of renal toxicity): dialysis was no longer required
potassium level (Case No. 5: 20 mg/kg every twelve hours, within 24 hours, serum potassium 6.8 before admission): normalized
urine volume (Case No. 5: deterioration of chronic renal failure after Ciprofloxacin, 20 mg/kg every twelve hours, within 24 hours): substantially increased
need for hemodialysis (Case No. 5: remained on 600 mg twice daily): no longer required any hemodialysis
